Test results reported in PubChem BioAssay (NCI).
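Compound exposure: 48 hours, 5 concentrations, 96-well plates. Here, GI50 denotes the concentration required for 50% inhibition of growth. TGI denotes the concentration required for complete inhibition of growth.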

Experiments:
Experiment in all cases: NCI-60 cell line screen, 48 h
UACC-62 melanoma = test system: UACC-62 melanoma
SK-OV-3 ovarian = test system: SK-OV-3 ovarian
SF-268 CNS = test system: SF-268 CNS
KM20L2 colon = test system: KM20L2 colon
CCRF-CEM leukemia = test system: CCRF-CEM leukemia
M14 melanoma = test system: M14 melanoma
SK-MEL-2 melanoma = test system: SK-MEL-2 melanoma
SNB-19 CNS = test system: SNB-19 CNS
MOLT-4 leukemia = test system: MOLT-4 leukemia
NCI-H23 lung = test system: NCI-H23 lung
U251 CNS = test system: U251 CNS
UO-31 renal = test system: UO-31 renal
HOP-92 NSCLC = test system: HOP-92 NSCLC
NCI-H460 lung = test system: NCI-H460 lung
EKVX NSCLC = test system: EKVX NSCLC
IGROV1 ovarian = test system: IGROV1 ovarian
OVCAR-4 ovarian = test system: OVCAR-4 ovarian
SW-620 colon = test system: SW-620 colon
HCT-15 colon = test system: HCT-15 colon
786-0 renal = test system: 786-0 renal
HL-60(TB) leukemia = test system: HL-60(TB) leukemia
LXFL 529 NSCLC = test system: LXFL 529 NSCLC
DLD-1 colon = test system: DLD-1 colon
SK-MEL-5 melanoma = test system: SK-MEL-5 melanoma
TK-10 renal = test system: TK-10 renal
OVCAR-5 ovarian = test system: OVCAR-5 ovarian
HOP-18 NSCLC = test system: HOP-18 NSCLC
SF-295 CNS = test system: SF-295 CNS
SK-MEL-28 melanoma = test system: SK-MEL-28 melanoma
A549 NSCLC = test system: A549 NSCLC
SNB-78 CNS = test system: SNB-78 CNS
SF-539 CNS = test system: SF-539 CNS
SNB-75 CNS = test system: SNB-75 CNS
NCI-H522 lung = test system: NCI-H522 lung
KM12 colon = test system: KM12 colon
XF 498 CNS = test system: XF 498 CNS
K-562 leukemia = test system: K-562 leukemia
HT29 colon = test system: HT29 colon
SN12C renal = test system: SN12C renal
HCT-116 colon = test system: HCT-116 colon
DMS 273 small cell lung = test system: DMS 273 small cell lung
MALME-3M melanoma = test system: MALME-3M melanoma
COLO 205 colon = test system: COLO 205 colon
RPMI-8226 leukemia = test system: RPMI-8226 leukemia
HCC-2998 colon = test system: HCC-2998 colon
NCI-H226 lung = test system: NCI-H226 lung
SR leukemia = test system: SR leukemia
ACHN renal = test system: ACHN renal
A498 renal = test system: A498 renal
LOX IMVI melanoma = test system: LOX IMVI melanoma
OVCAR-8 ovarian = test system: OVCAR-8 ovarian
OVCAR-3 ovarian = test system: OVCAR-3 ovarian
RXF 393 renal = test system: RXF 393 renal
CAKI-1 renal = test system: CAKI-1 renal
HOP-62 NSCLC = test system: HOP-62 NSCLC
UACC-257 melanoma = test system: UACC-257 melanoma

O=C([O-])c1ccc2c(c1)-c1nc-2nc2[n-]c(nc3nc(nc4[n-]c(n1)c1ccc(C(=O)[O-])cc41)-c1ccc(C(=O)[O-])cc1-3)c1ccc(C(=O)[O-])cc21.[Gd+3].[K+]
GI50 (UACC-62 melanoma): 99.7 µM | TGI (UACC-62 melanoma): > 100 µM | GI50 (SK-OV-3 ovarian): > 100 µM | TGI (SK-OV-3 ovarian): > 100 µM | GI50 (SF-268 CNS): > 64.1 µM | TGI (SF-268 CNS): > 100 µM | GI50 (KM20L2 colon): > 58.8 µM | TGI (KM20L2 colon): > 100 µM | GI50 (CCRF-CEM leukemia): > 36.5 µM | TGI (CCRF-CEM leukemia): > 54.2 µM | GI50 (M14 melanoma): > 65.1 µM | TGI (M14 melanoma): > 100 µM | GI50 (SK-MEL-2 melanoma): > 100 µM | TGI (SK-MEL-2 melanoma): > 100 µM | GI50 (SNB-19 CNS): > 100 µM | TGI (SNB-19 CNS): > 100 µM | GI50 (MOLT-4 leukemia): > 49 µM | TGI (MOLT-4 leukemia): > 100 µM | GI50 (NCI-H23 lung): > 100 µM | TGI (NCI-H23 lung): > 100 µM | GI50 (U251 CNS): > 57 µM | TGI (U251 CNS): > 100 µM | GI50 (UO-31 renal): > 100 µM | TGI (UO-31 renal): > 100 µM | GI50 (HOP-92 NSCLC): > 100 µM | TGI (HOP-92 NSCLC): > 100 µM | GI50 (NCI-H460 lung): > 100 µM | TGI (NCI-H460 lung): > 100 µM | GI50 (EKVX NSCLC): > 100 µM | TGI (EKVX NSCLC): > 100 µM | GI50 (IGROV1 ovarian): > 100 µM | TGI (IGROV1 ovarian): > 100 µM | GI50 (OVCAR-4 ovarian): > 46.7 µM | TGI (OVCAR-4 ovarian): > 71.7 µM | GI50 (SW-620 colon): > 22.8 µM | TGI (SW-620 colon): > 50.9 µM | GI50 (HCT-15 colon): > 42.6 µM | TGI (HCT-15 colon): > 64.3 µM | GI50 (786-0 renal): 18 µM | TGI (786-0 renal): 40.9 µM | GI50 (HL-60(TB) leukemia): > 38.5 µM | TGI (HL-60(TB) leukemia): > 54.5 µM | GI50 (LXFL 529 NSCLC): > 57.1 µM | TGI (LXFL 529 NSCLC): > 100 µM | GI50 (DLD-1 colon): > 53.2 µM | TGI (DLD-1 colon): > 94 µM | GI50 (SK-MEL-5 melanoma): > 100 µM | TGI (SK-MEL-5 melanoma): > 100 µM | GI50 (TK-10 renal): > 100 µM | TGI (TK-10 renal): > 100 µM | GI50 (OVCAR-5 ovarian): > 100 µM | TGI (OVCAR-5 ovarian): > 100 µM | GI50 (HOP-18 NSCLC): > 100 µM | TGI (HOP-18 NSCLC): > 100 µM | GI50 (SF-295 CNS): > 100 µM | TGI (SF-295 CNS): > 100 µM | GI50 (SK-MEL-28 melanoma): > 100 µM | TGI (SK-MEL-28 melanoma): > 100 µM | GI50 (A549 NSCLC): > 100 µM | TGI (A549 NSCLC): > 100 µM | GI50 (SNB-78 CNS): > 100 µM | TGI (SNB-78 CNS): > 100 µM | GI50 (SF-539 CNS): > 46.5 µM | TGI (SF-539 CNS): > 69 µM | GI50 (SNB-75 CNS): > 100 µM | TGI (SNB-75 CNS): > 100 µM | GI50 (NCI-H522 lung): > 100 µM | TGI (NCI-H522 lung): > 100 µM | GI50 (KM12 colon): 19.1 µM | TGI (KM12 colon): 34.6 µM | GI50 (XF 498 CNS): > 100 µM | TGI (XF 498 CNS): > 100 µM | GI50 (K-562 leukemia): > 38.9 µM | TGI (K-562 leukemia): > 56.8 µM | GI50 (HT29 colon): > 83.1 µM | TGI (HT29 colon): > 100 µM | GI50 (SN12C renal): > 72.7 µM | TGI (SN12C renal): > 100 µM | GI50 (HCT-116 colon): > 40.1 µM | TGI (HCT-116 colon): > 56.6 µM | GI50 (DMS 273 small cell lung): 16.6 µM | TGI (DMS 273 small cell lung): 36.1 µM | GI50 (MALME-3M melanoma): > 100 µM | TGI (MALME-3M melanoma): > 100 µM | GI50 (COLO 205 colon): > 38.9 µM | TGI (COLO 205 colon): > 55.2 µM | GI50 (RPMI-8226 leukemia): > 47.2 µM | TGI (RPMI-8226 leukemia): > 66 µM | GI50 (HCC-2998 colon): > 100 µM | TGI (HCC-2998 colon): > 100 µM | GI50 (NCI-H226 lung): > 100 µM | TGI (NCI-H226 lung): > 100 µM | GI50 (SR leukemia): 30.6 µM | TGI (SR leukemia): 53.9 µM | GI50 (ACHN renal): > 100 µM | TGI (ACHN renal): > 100 µM | GI50 (A498 renal): > 100 µM | TGI (A498 renal): > 100 µM | GI50 (LOX IMVI melanoma): 16.6 µM | TGI (LOX IMVI melanoma): 45.7 µM | GI50 (OVCAR-8 ovarian): > 100 µM | TGI (OVCAR-8 ovarian): > 100 µM | GI50 (OVCAR-3 ovarian): > 100 µM | TGI (OVCAR-3 ovarian): > 100 µM | GI50 (RXF 393 renal): > 100 µM | TGI (RXF 393 renal): > 100 µM | GI50 (CAKI-1 renal): > 100 µM | TGI (CAKI-1 renal): > 100 µM | GI50 (HOP-62 NSCLC): > 100 µM | TGI (HOP-62 NSCLC): > 100 µM | GI50 (UACC-257 melanoma): > 100 µM | TGI (UACC-257 melanoma): > 100 µM
